ChEMBL document CHEMBL1153155, “Ring-fused pyrazole derivatives as potent inhibitors of lymphocyte-specific kinase (Lck): Structure, synthesis, and SAR” (Bioorg Med Chem Lett, 2010)

Experiments:
[1] = system: Lymphocyte; test: Immunosuppressive activity in C57BL/6 mouse lymphocytes cocultured with mitomycin C-stimulated BALB/c mouse splenocyte assessed as [3H]thymidine incorporation after 72 hrs by mixed lymphocyte reaction
[2] = molecular target: Dual specificity mitogen-activated protein kinase kinase 1 (Homo sapiens, UniProt Q02750); test: Inhibition of MEK1
Sequence of Dual specificity mitogen-activated protein kinase kinase 1 (Q02750 whole entry): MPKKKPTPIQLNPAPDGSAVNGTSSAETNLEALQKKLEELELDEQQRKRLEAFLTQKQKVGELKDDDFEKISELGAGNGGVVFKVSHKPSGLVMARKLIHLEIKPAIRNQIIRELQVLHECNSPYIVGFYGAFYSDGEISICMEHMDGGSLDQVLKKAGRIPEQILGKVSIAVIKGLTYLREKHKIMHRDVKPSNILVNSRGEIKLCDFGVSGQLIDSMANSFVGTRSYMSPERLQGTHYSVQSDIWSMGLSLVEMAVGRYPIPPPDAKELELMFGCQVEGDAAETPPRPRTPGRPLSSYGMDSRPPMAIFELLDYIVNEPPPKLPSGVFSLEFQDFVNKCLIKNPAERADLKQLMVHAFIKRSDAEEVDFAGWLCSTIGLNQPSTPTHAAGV

[3] = molecular target: Tyrosine-protein kinase CSK (Homo sapiens, UniProt P41240); test: Inhibition of Csk
[4] = molecular target: Tyrosine-protein kinase Lck (Homo sapiens, UniProt P06239); test: Inhibition of GST-tagged human LCK by scintillation counting
Sequence of Tyrosine-protein kinase Lck (P06239 whole entry): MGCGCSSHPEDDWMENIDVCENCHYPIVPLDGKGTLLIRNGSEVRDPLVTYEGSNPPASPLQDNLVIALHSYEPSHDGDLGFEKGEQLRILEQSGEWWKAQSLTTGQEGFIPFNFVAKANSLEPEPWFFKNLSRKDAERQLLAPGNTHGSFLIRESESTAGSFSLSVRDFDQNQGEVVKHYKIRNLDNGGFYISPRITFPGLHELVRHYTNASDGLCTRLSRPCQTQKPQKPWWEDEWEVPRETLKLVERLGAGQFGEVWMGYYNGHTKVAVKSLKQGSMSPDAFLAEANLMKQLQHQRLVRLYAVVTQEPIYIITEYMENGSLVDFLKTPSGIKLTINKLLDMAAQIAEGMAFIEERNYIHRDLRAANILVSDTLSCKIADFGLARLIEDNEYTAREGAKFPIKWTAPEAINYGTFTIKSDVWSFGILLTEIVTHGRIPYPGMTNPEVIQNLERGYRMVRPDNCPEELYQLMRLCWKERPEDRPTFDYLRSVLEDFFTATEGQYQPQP

[5] = Inhibition of PKA
[6] = molecular target: Cyclin-dependent kinase 1 (Homo sapiens, UniProt P06493); test: Inhibition of CDK1
Sequence of Cyclin-dependent kinase 1 (P06493 whole entry): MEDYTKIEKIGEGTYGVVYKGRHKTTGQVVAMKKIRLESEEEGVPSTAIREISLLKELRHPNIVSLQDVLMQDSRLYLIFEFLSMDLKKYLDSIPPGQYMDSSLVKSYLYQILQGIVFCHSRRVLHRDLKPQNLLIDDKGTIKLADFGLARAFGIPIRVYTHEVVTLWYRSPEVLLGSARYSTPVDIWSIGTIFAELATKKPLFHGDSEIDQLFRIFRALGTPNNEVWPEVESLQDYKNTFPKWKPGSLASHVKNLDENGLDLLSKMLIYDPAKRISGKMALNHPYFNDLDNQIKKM

[7] = molecular target: Protein kinase C alpha type (Homo sapiens, UniProt P17252); test: Inhibition of PKCalpha
[8] = molecular target: Proto-oncogene tyrosine-protein kinase Src (Homo sapiens, UniProt P12931); test: Inhibition of SRC
Sequence of Proto-oncogene tyrosine-protein kinase Src (P12931 2-536 limits assumed): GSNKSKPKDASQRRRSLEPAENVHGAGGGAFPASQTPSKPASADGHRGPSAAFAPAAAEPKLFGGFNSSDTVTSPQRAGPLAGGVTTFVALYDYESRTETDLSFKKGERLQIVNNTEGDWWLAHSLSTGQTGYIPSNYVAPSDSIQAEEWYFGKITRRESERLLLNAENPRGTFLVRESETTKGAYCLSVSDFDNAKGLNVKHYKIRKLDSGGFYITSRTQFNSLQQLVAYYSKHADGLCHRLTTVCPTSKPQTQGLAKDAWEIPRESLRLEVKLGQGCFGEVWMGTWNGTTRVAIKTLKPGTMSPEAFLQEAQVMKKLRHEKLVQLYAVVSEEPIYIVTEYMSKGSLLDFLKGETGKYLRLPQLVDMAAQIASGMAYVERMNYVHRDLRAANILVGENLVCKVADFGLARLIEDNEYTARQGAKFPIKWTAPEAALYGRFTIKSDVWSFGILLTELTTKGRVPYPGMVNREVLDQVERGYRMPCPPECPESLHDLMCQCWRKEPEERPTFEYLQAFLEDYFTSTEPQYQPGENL

[9] = molecular target: T1, Tyrosine-protein kinase ZAP-70 (Homo sapiens, UniProt P43403); test: Inhibition of Zap70
T1 sequence (P43403 whole entry): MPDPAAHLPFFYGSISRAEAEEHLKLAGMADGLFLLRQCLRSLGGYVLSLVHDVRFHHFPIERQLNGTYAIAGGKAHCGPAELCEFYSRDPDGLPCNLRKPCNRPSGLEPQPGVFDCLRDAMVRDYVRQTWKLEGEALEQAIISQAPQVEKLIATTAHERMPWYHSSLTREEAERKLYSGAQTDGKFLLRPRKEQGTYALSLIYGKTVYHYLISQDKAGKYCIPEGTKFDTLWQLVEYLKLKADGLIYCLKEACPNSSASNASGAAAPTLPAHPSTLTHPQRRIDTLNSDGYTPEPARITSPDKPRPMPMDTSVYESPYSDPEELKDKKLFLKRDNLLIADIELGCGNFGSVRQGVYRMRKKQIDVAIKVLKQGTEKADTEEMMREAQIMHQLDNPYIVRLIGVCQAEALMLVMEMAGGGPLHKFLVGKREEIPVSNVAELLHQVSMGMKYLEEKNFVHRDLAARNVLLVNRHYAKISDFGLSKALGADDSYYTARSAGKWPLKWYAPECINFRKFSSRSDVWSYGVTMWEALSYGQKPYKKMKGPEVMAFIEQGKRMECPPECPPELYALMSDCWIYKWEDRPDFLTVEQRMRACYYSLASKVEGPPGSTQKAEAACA

[10] = molecular target: Mitogen-activated protein kinase 1 (Homo sapiens, UniProt P28482); test: Inhibition of MAPK1
Sequence of Mitogen-activated protein kinase 1 (P28482 whole entry): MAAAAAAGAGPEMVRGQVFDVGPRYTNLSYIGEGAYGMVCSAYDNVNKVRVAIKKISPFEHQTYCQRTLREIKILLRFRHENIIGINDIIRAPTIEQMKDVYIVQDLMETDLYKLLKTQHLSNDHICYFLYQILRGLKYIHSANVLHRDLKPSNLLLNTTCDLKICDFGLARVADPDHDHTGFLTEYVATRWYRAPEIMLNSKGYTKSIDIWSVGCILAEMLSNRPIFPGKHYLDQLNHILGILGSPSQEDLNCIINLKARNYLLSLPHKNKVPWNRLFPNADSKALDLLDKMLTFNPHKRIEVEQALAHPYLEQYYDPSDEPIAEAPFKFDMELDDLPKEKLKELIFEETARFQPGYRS

[11] = molecular target: RAC-alpha serine/threonine-protein kinase (Homo sapiens, UniProt P31749); test: Inhibition of PKBalpha
Sequence of RAC-alpha serine/threonine-protein kinase (P31749 whole entry): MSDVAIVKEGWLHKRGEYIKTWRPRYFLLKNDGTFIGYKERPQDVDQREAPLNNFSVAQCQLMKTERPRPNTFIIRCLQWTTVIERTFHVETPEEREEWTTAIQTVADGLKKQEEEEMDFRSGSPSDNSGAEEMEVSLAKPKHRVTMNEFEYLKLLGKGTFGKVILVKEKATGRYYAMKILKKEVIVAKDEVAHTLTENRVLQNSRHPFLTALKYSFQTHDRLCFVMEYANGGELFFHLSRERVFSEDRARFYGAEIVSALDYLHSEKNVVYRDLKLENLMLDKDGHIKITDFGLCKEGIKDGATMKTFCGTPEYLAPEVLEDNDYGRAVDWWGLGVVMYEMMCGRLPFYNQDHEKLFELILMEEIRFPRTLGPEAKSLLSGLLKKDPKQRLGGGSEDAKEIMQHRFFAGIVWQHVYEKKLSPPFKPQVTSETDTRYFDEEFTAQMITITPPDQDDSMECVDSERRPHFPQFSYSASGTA

[12] = molecular target: T2, Calcium/calmodulin-dependent protein kinase type IV (Homo sapiens, UniProt Q16566); test: Inhibition of CamK4
T2 sequence (Q16566 whole entry): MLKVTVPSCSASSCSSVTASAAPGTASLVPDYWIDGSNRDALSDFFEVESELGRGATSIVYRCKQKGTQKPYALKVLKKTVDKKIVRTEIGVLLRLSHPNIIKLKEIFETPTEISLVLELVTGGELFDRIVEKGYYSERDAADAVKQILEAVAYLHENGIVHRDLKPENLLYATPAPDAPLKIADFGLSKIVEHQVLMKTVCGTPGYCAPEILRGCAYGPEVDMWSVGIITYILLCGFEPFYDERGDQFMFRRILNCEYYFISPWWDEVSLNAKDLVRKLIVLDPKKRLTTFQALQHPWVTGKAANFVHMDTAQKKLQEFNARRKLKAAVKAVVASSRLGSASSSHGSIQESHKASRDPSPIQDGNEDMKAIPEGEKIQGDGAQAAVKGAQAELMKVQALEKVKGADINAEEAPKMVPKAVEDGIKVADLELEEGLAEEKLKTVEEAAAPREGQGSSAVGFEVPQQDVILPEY

Row | SMILES | IC50 [1] [µM] | also measured
1 | NC(=O)c1c(-c2ccc(Oc3ccccc3)cc2)nn2c1Nc1ccc(OCc3ccccn3)cc1CC2 | 0.0084 | –
2 | NC(=O)COc1ccc2c(c1)Nc1c(C(N)=O)c(-c3ccc(Oc4ccccc4)cc3)nn1CC2 | 0.016 | –
3 | NC(=O)c1c(-c2ccc(Oc3ccccc3)cc2)nn2c1Nc1cc(OCCN3CCOCC3)ccc1CC2 | 0.015 | –
4 | COc1ccc2c(c1)Nc1c(C(N)=O)c(-c3ccc(Oc4ccccc4)cc3)nn1CC2 | 0.3 | –
5 | NC(=O)c1c(-c2ccc(Oc3ccccc3)cc2)nn2c1Nc1cc(OCCO)ccc1CC2 | 0.058 | –
6 | CN1CCN(CCOc2ccc3c(c2)Nc2c(C(N)=O)c(-c4ccc(Oc5ccccc5)cc4)nn2CC3)CC1 | 0.012 | –
7 | CC(C)CCCOc1ccc2c(c1)Nc1c(C(N)=O)c(-c3ccc(Oc4ccccc4)cc3)nn1CC2 | 0.62 | IC50 [4]: > 0.1 µM
8 | CC(=O)COc1ccc2c(c1)Nc1c(C(N)=O)c(-c3ccc(Oc4ccccc4)cc3)nn1CC2 | 0.061 | –
9 | NC(=O)c1c(-c2ccc(Oc3ccccc3)cc2)nn2c1Nc1ccc(OCc3ccncc3)cc1CC2 | 0.0044 | –
10 | NC(=O)c1c(-c2ccc(Oc3ccccc3)cc2)nn2c1Nc1ccc(OCCN3CCOCC3)cc1CC2 | 0.0011 | –
11 | NC(=O)c1c(-c2ccc(Oc3ccccc3)cc2)nn2c1Nc1ccc(OCc3cccnc3)cc1CC2 | 0.0015 | –
12 | NC(=O)c1c(-c2ccc(Oc3ccccc3)cc2)nn2c1Nc1ccc(OCCO)cc1CC2 | 0.0012 | –
13 | NC(=O)COc1ccc2c(c1)CCn1nc(-c3ccc(Oc4ccccc4)cc3)c(C(N)=O)c1N2 | 0.088 | –
14 | CN1CCN(CCOc2ccc3c(c2)CCn2nc(-c4ccc(Oc5ccccc5)cc4)c(C(N)=O)c2N3)CC1 | 0.0067 | –
15 | NC(=O)c1c(-c2ccc(Oc3ccccc3)cc2)nn2c1Nc1cc(OCC(=O)O)ccc1CC2 | > 1 | –
16 | NC(=O)c1c(-c2ccc(Oc3ccccc3)cc2)nn2c1Nc1cc(OCc3cccnc3)ccc1CC2 | 0.052 | –
17 | NCCOc1ccc2c(c1)Nc1c(C(N)=O)c(-c3ccc(Oc4ccccc4)cc3)nn1CC2 | 0.025 | –

The next lines start with results.

Row | IC50 [1] [µM] | SMILES | also measured
18 | 0.021 | CN(C)CCOc1ccc2c(c1)CCn1nc(-c3ccc(NC(=O)Nc4c(Cl)cccc4Cl)cc3)c(C(N)=O)c1N2 | –
19 | 0.0064 | CN(C)CCOc1ccc2c(c1)Nc1c(C(N)=O)c(-c3ccc(Oc4ccccc4)cc3)nn1CC2 | –
20 | 0.0013 | NCCOc1ccc2c(c1)CCn1nc(-c3ccc(Oc4ccccc4)cc3)c(C(N)=O)c1N2 | –
21 | 0.00074 | CN(C)CCOc1ccc2c(c1)CCn1nc(-c3ccc(Oc4ccccc4)cc3)c(C(N)=O)c1N2 | IC50 [2]: > 10 µM; IC50 [3]: 0.0017 µM; IC50 [4]: 0.00072 µM; IC50 [5]: > 10 µM; IC50 [6]: > 10 µM; IC50 [7]: > 10 µM; IC50 [8]: 0.0006 µM; IC50 [9]: > 1 µM; IC50 [10]: > 10 µM; IC50 [11]: > 10 µM; IC50 [12]: > 10 µM
22 | 0.00085 | CN(C)CCCOc1ccc2c(c1)CCn1nc(-c3ccc(Oc4ccccc4)cc3)c(C(N)=O)c1N2 | –
23 | 0.012 | CN(C)CCCOc1ccc2c(c1)Nc1c(C(N)=O)c(-c3ccc(Oc4ccccc4)cc3)nn1CC2 | –
24 | 0.05 | CN(C)CCOc1ccc2c(c1)CCn1nc(-c3ccc(NC(=O)Nc4ccccc4)cc3)c(C(N)=O)c1N2 | –
25 | 0.038 | CN(C)CCOc1ccc2c(c1)CCn1nc(-c3ccc(O)cc3)c(C(N)=O)c1N2 | –
26 | 0.0013 | CN(C)CCOc1ccc2c(c1)CCn1nc(-c3ccc(NCc4c(Cl)cccc4Cl)cc3)c(C(N)=O)c1N2 | –
27 | 0.0082 | CN(C)CCOc1ccc2c(c1)CCn1nc(-c3ccc(Nc4ccccc4)cc3)c(C(N)=O)c1N2 | –
28 | 0.023 | CN(C)CCOc1ccc2c(c1)CCn1nc(-c3ccc(NC(=O)OCc4ccccc4)cc3)c(C(N)=O)c1N2 | –
29 | 0.18 | CN(C)CCOc1ccc2c(c1)CCn1nc(-c3ccc(N)cc3)c(C(N)=O)c1N2 | –
